Experimental data taken from ChEMBL document CHEMBL1909542, “Synthesis and acrosin inhibitory activity of substituted 4-amino-N-(diaminomethylene) benzenesulfonamide derivatives” (Bioorg Med Chem Lett, 2011).

Biological target: Acrosin (Homo sapiens, UniProt P10323)
Assay: Inhibition of acrosin activity in human spermatozoa using N-alpha-benzoyl-DL-arginine para-nitroanilide-HCI as a substrate after 3 hrs by spectrophotometric analysis

Acrosin, sequence (P10323 20-42 limits assumed): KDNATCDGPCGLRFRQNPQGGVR
Acrosin, sequence (P10323 43-343 limits assumed): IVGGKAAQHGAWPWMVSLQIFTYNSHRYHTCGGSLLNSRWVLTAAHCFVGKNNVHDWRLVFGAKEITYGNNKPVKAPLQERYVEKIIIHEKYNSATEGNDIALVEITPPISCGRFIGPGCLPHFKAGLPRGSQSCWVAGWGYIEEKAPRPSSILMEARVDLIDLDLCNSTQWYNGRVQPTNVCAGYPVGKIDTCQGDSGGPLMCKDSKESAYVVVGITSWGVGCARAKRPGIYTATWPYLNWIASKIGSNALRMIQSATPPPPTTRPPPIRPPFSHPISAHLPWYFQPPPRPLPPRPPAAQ

Row | IC50 [mM] | Structure (SMILES)
1 | 2.21 | COc1ccc(C(=O)Nc2ccc(S(=O)(=O)N=C(N)N)cc2)cc1
2 | 2.06 | Cc1ccc(C(=O)Nc2ccc(S(=O)(=O)N=C(N)N)cc2)cc1
3 | 6.3 | NC(N)=NS(=O)(=O)c1ccc(NC(=O)c2ccccc2Cl)cc1
4 | 7 | NC(N)=NS(=O)(=O)c1ccc(NC(=O)c2cccc(Cl)c2)cc1
5 | 5.63 | NC(N)=NS(=O)(=O)c1ccc(NC(=O)c2ccc(Cl)cc2Cl)cc1
6 | 5.96 | NC(N)=NS(=O)(=O)c1ccc(NC(=O)c2c(Cl)cccc2Cl)cc1
7 | 3.8 | NC(N)=NS(=O)(=O)c1ccc(NC(=O)c2ccc(Cl)c(Cl)c2)cc1
8 | 7.63 | NC(N)=NS(=O)(=O)c1ccc(NC(=O)c2ccccc2Br)cc1
9 | 7.11 | NC(N)=NS(=O)(=O)c1ccc(NC(=O)c2ccc(F)cc2)cc1
10 | 3.84 | NC(N)=NS(=O)(=O)c1ccc(NC(=O)c2ccc(CCl)cc2)cc1
11 | 7.05 | NC(N)=NS(=O)(=O)c1ccc(NC(=O)c2cccc(C(F)(F)F)c2)cc1
12 | 0.21 | CCc1ccc(C(=O)Nc2ccc(S(=O)(=O)N=C(N)N)cc2)cc1

Second part, the molecule before the results:

Row | Structure (SMILES) | IC50 [mM]
13 | NC(N)=NS(=O)(=O)c1ccc(NC(=O)c2c(F)cccc2F)cc1 | 7.18
14 | Cc1cc(C)c(C(=O)Nc2ccc(S(=O)(=O)N=C(N)N)cc2)c(C)c1 | 2.45
15 | NC(N)=NS(=O)(=O)c1ccc(NC(=O)c2cc([N+](=O)[O-])cc([N+](=O)[O-])c2)cc1 | 2.5
16 | CCOc1ccc(C(=O)Nc2ccc(S(=O)(=O)N=C(N)N)cc2)cc1 | 0.13
17 | CCC(=O)Nc1ccc(S(=O)(=O)N=C(N)N)cc1 | 9
18 | CCCC(=O)Nc1ccc(S(=O)(=O)N=C(N)N)cc1 | 9.58
19 | CCCCC(=O)Nc1ccc(S(=O)(=O)N=C(N)N)cc1 | 1.58
20 | NC(N)=NS(=O)(=O)c1ccc(NC(=O)CN2CCCCC2)cc1 | 7.41
21 | CC1CCCCN1CC(=O)Nc1ccc(S(=O)(=O)N=C(N)N)cc1 (stereo unspecified) | 9.9
22 | CC1CCN(CC(=O)Nc2ccc(S(=O)(=O)N=C(N)N)cc2)CC1 | 4.98
23 | COC(=O)C1CCN(CC(=O)Nc2ccc(S(=O)(=O)N=C(N)N)cc2)CC1 | 9.3
24 | CCOC(=O)C1CCN(CC(=O)Nc2ccc(S(=O)(=O)N=C(N)N)cc2)CC1 | 2.99
25 | CCCOC(=O)C1CCN(CC(=O)Nc2ccc(S(=O)(=O)N=C(N)N)cc2)CC1 | 3.31
26 | CC(C)OC(=O)C1CCN(CC(=O)Nc2ccc(S(=O)(=O)N=C(N)N)cc2)CC1 | 2.35
27 | CCCCOC(=O)C1CCN(CC(=O)Nc2ccc(S(=O)(=O)N=C(N)N)cc2)CC1 | 9.5
28 | CC(C)CCOC(=O)C1CCN(CC(=O)Nc2ccc(S(=O)(=O)N=C(N)N)cc2)CC1 | 2.51
29 | NC(N)=NS(=O)(=O)c1ccc(NC(=O)COc2ccccc2)cc1 | 2.3
30 | Cc1ccccc1OCC(=O)Nc1ccc(S(=O)(=O)N=C(N)N)cc1 | 9.3
31 | Cc1cccc(OCC(=O)Nc2ccc(S(=O)(=O)N=C(N)N)cc2)c1 | 8.92
32 | Cc1ccc(OCC(=O)Nc2ccc(S(=O)(=O)N=C(N)N)cc2)cc1 | 8.98
33 | NC(N)=NS(=O)(=O)c1ccc(NC(=O)COc2ccc(Cl)cc2)cc1 | 9.35
34 | COc1ccc(OCC(=O)Nc2ccc(S(=O)(=O)N=C(N)N)cc2)cc1 | 9.84
35 | NC(N)=NS(=O)(=O)c1ccc(NC(=O)COc2ccc([N+](=O)[O-])cc2)cc1 | 4.2
36 | COC(=O)c1ccc(OC(=O)c2ccc(NC(=N)N)cc2)cc1.CS(=O)(=O)O | 0.027
